Test results taken from patent US11319299B2, “Substituted carboxamides as inhibitors of WDR5 protein-protein binding” (PROPELLON THERAPEUTICS INC., priority 2016, dated 2022).

Target: WDR5 (Homo sapiens (Human), UniProt P61964)
Experiment: Surface Plasmon Resonance (SPR) assay, KD and residence time
Assay type: binding
Conditions: surface plasmon resonance (SPR) assay; read-out: WDR5 binding affinity (KD)

| Structure (SMILES) | Kd [nM] |
| --- | --- |
| C[C@@H]1CN(c2cc(F)c(-c3cnc(N4C5CCC4CC5)nc3)cc2NC(=O)c2c[nH]c(=O)cc2C(F)(F)F)C[C@H](C)N1C [Example 352, N-[5-[2-(7-azabicyclo[2.2.1]heptan-7-yl)pyrimidin-5-yl]-4-fluoro-2-[(3R,5S)-3,4,5-trimethylpiperazin-1-yl]phenyl]-6-oxo-4-(trifluoromethyl)-1H-pyridine-3-carboxamide] | 2.73 |
| C[C@@H]1CN(c2cc(F)c(-c3cnc(N4CCOCC4)nc3)cc2NC(=O)c2ccc(F)cc2C(F)(F)F)C[C@H](C)N1 [Example 364, 4-fluoro-N-[4-fluoro-5-(2-morpholin-4-ylpyrimidin-5-yl)-2-[(3R,5S)-3,5-dimethylpiperazin-1-yl]phenyl]-2-(trifluoromethyl)benzamide] | 5.87 |
| C[C@@H]1CN(c2cc(F)c(-c3cnc(N(C)C4CCOCC4)nc3)cc2NC(=O)c2c[nH]c(=O)cc2C(F)(F)F)C[C@H](C)N1C [Example 371, N-[4-fluoro-5-[2-[methyl(oxan-4-yl)amino]pyrimidin-5-yl]-2-[(3R,5S)-3,4,5-trimethylpiperazin-1-yl]phenyl]-6-oxo-4-(trifluoromethyl)-1H-pyridine-3-carboxamide] | 0.59 |
| C[C@@H]1CN(c2cc(F)c(C3=CCCN(C(=O)N4CCCC4)C3)cc2NC(=O)c2c[nH]c(=O)cc2C(F)(F)F)C[C@H](C)N1C [Example 374, N-[4-fluoro-5-[1-(pyrrolidine-1-carbonyl)-3,6-dihydro-2H-pyridin-5-yl]-2-[(3R,5S)-3,4,5-trimethylpiperazin-1-yl]phenyl]-6-oxo-4-(trifluoromethyl)-1H-pyridine-3-carboxamide] | 1.15 |
| C[C@@H]1CN(c2cc(F)c(-c3cnc(N4CCN(C)CC4)nc3)cc2NC(=O)c2ccc(F)cc2C(F)(F)F)C[C@H](C)N1C [Example 379, 4-fluoro-N-[4-fluoro-5-[2-(4-methylpiperazin-1-yl)pyrimidin-5-yl]-2-[(3R,5S)-3,4,5-trimethylpiperazin-1-yl]phenyl]-2-(trifluoromethyl)benzamide] | 0.933 |
| C[C@@H]1CN(c2cc(F)c(-c3cnc(N(C)C)nc3)cc2NC(=O)c2ccc(F)cc2C(F)(F)F)C[C@H](C)N1C [Example 380, N-[5-[2-(dimethylamino)pyrimidin-5-yl]-4-fluoro-2-[(3R,5S)-3,4,5-trimethylpiperazin-1-yl]phenyl]-4-fluoro-2-(trifluoromethyl)benzamide] | 1.7 |
| C[C@@H]1CN(c2ncc(-c3cc(NC(=O)c4ccc(F)cc4C(F)(F)F)c(N4C[C@@H](C)N(C)[C@@H](C)C4)cc3F)cn2)C[C@H](C)N1C [Example 381, 4-fluoro-N-[4-fluoro-2-[(3R,5S)-3,4,5-trimethylpiperazin-1-yl]-5-[2-[(3R,5S)-3,4,5-trimethylpiperazin-1-yl]pyrimidin-5-yl]phenyl]-2-(trifluoromethyl)benzamide] | 0.31 |
| C[C@@H]1CN(c2ncc(-c3cc(NC(=O)c4c[nH]c(=O)cc4C(F)F)c(N4C[C@@H](C)N(C)[C@@H](C)C4)cc3F)cn2)C[C@H](C)O1 [Example 385, 4-(difluoromethyl)-N-[4-fluoro-5-[2-[(2R,6S)-2,6-dimethylmorpholin-4-yl]pyrimidin-5-yl]-2-[(3S,5R)-3,4,5-trimethylpiperazin-1-yl]phenyl]-6-oxo-1H-pyridine-3-carboxamide] | 0.72 |
| C[C@@H]1CN(c2ncc(-c3cc(NC(=O)c4c[nH]c(=O)cc4C(F)F)c(N4C[C@@H](C)N(C)[C@@H](C)C4)cc3F)cn2)CCO1 [Example 386, 4-(difluoromethyl)-N-[4-fluoro-5-[2-[(2R)-2-methylmorpholin-4-yl]pyrimidin-5-yl]-2-[(3R,5S)-3,4,5-trimethylpiperazin-1-yl]phenyl]-6-oxo-1H-pyridine-3-carboxamide] | 1.49 |
| C[C@@H]1CN(c2cc(F)c(C3=CCCN(c4ncccn4)C3)cc2NC(=O)c2cn(C)c(=O)cc2C(F)(F)F)C[C@H](C)N1C [Example 391, N-[4-fluoro-5-(1-pyrimidin-2-yl-3,6-dihydro-2H-pyridin-5-yl)-2-[(3R,5S)-3,4,5-trimethylpiperazin-1-yl]phenyl]-1-methyl-6-oxo-4-(trifluoromethyl)pyridine-3-carboxamide] | 4.27 |
| C[C@@H]1CN(c2cc(F)c(N3CCN(Cc4ccc(F)cc4)CC3)cc2NC(=O)c2c[nH]c(=O)cc2C(F)(F)F)C[C@H](C)N1C [Example 392, N-[4-fluoro-5-[4-[(4-fluorophenyl)methyl]piperazin-1-yl]-2-[(3R,5S)-3,4,5-trimethylpiperazin-1-yl]phenyl]-6-oxo-4-(trifluoromethyl)-1H-pyridine-3-carboxamide] | 8.08 |

Now from value to compound:

| Kd [nM] | Structure (SMILES) |
| --- | --- |
| 0.246 | COc1cc(N2CCC=C(c3cc(NC(=O)c4c[nH]c(=O)cc4C(F)(F)F)c(N4C[C@@H](C)N(C)[C@@H](C)C4)cc3F)C2)ncn1 [Example 365, N-[4-fluoro-5-[1-(6-methoxypyrimidin-4-yl)-3,6-dihydro-2H-pyridin-5-yl]-2-[(3R,5S)-3,4,5-trimethylpiperazin-1-yl]phenyl]-6-oxo-4-(trifluoromethyl)-1H-pyridine-3-carboxamide] |
| 1.76 | COc1cnc(N2CC=C(c3cc(NC(=O)c4c[nH]c(=O)cc4C(F)(F)F)c(N4C[C@@H](C)N(C)[C@@H](C)C4)cc3F)CC2)nc1 [Example 366, N-[4-fluoro-5-[1-(5-methoxypyrimidin-2-yl)-3,6-dihydro-2H-pyridin-4-yl]-2-[(3R,5S)-3,4,5-trimethylpiperazin-1-yl]phenyl]-6-oxo-4-(trifluoromethyl)-1H-pyridine-3-carboxamide] |
| 1.04 | C[C@@H]1CN(c2cc(F)c(C3=CCN(c4ncc(F)cn4)CC3)cc2NC(=O)c2c[nH]c(=O)cc2C(F)(F)F)C[C@H](C)N1C [Example 367, N-[4-fluoro-5-[1-(5-fluoropyrimidin-2-yl)-3,6-dihydro-2H-pyridin-4-yl]-2-[(3R,5S)-3,4,5-trimethylpiperazin-1-yl]phenyl]-6-oxo-4-(trifluoromethyl)-1H-pyridine-3-carboxamide] |
| 2.3 | Cc1cc(C)nc(N2CC=C(c3cc(NC(=O)c4c[nH]c(=O)cc4C(F)(F)F)c(N4C[C@@H](C)N(C)[C@@H](C)C4)cc3F)CC2)n1 [Example 368, N-[5-[1-(4,6-dimethylpyrimidin-2-yl)-3,6-dihydro-2H-pyridin-4-yl]-4-fluoro-2-[(3R,5S)-3,4,5-trimethylpiperazin-1-yl]phenyl]-6-oxo-4-(trifluoromethyl)-1H-pyridine-3-carboxamide] |
| 0.685 | C[C@@H]1CN(c2cc(F)c(C3=CCN(c4ncc(C=O)cn4)CC3)cc2NC(=O)c2c[nH]c(=O)cc2C(F)(F)F)C[C@H](C)N1C [Example 369, N-[4-fluoro-5-[1-(5-formylpyrimidin-2-yl)-3,6-dihydro-2H-pyridin-4-yl]-2-[(3R,5S)-3,4,5-trimethylpiperazin-1-yl]phenyl]-6-oxo-4-(trifluoromethyl)-1H-pyridine-3-carboxamide] |
| 1.75 | C[C@@H]1CN(c2cc(F)c(C3=CCCN(C(=O)N(C)C)C3)cc2NC(=O)c2c[nH]c(=O)cc2C(F)(F)F)C[C@H](C)N1C [Example 372, N-[5-[1-(dimethylcarbamoyl)-3,6-dihydro-2H-pyridin-5-yl]-4-fluoro-2-[(3R,5S)-3,4,5-trimethylpiperazin-1-yl]phenyl]-6-oxo-4-(trifluoromethyl)-1H-pyridine-3-carboxamide] |
| 0.688 | COc1cnc(N2CCC=C(c3cc(NC(=O)c4c[nH]c(=O)cc4C(F)(F)F)c(N4C[C@@H](C)N(C)[C@@H](C)C4)cc3F)C2)nc1 [Example 375, N-[4-fluoro-5-[1-(5-methoxypyrimidin-2-yl)-3,6-dihydro-2H-pyridin-5-yl]-2-[(3R,5S)-3,4,5-trimethylpiperazin-1-yl]phenyl]-6-oxo-4-(trifluoromethyl)-1H-pyridine-3-carboxamide] |
| 0.673 | Cc1cnc(N2CCC=C(c3cc(NC(=O)c4c[nH]c(=O)cc4C(F)(F)F)c(N4C[C@@H](C)N(C)[C@@H](C)C4)cc3F)C2)nc1 [Example 376, N-[4-fluoro-5-[1-(5-methylpyrimidin-2-yl)-3,6-dihydro-2H-pyridin-5-yl]-2-[(3R,5S)-3,4,5-trimethylpiperazin-1-yl]phenyl]-6-oxo-4-(trifluoromethyl)-1H-pyridine-3-carboxamide] |
| 1.3 | C[C@@H]1CN(c2cc(F)c(C3=CCCN(c4ncc(F)cn4)C3)cc2NC(=O)c2c[nH]c(=O)cc2C(F)(F)F)C[C@H](C)N1C [Example 377, N-[4-fluoro-5-[1-(5-fluoropyrimidin-2-yl)-3,6-dihydro-2H-pyridin-5-yl]-2-[(3R,5S)-3,4,5-trimethylpiperazin-1-yl]phenyl]-6-oxo-4-(trifluoromethyl)-1H-pyridine-3-carboxamide] |
| 1.53 | C[C@@H]1CN(c2cc(F)c(-c3ccc(N4CCOCC4)nn3)cc2NC(=O)c2c[nH]c(=O)cc2C(F)(F)F)C[C@H](C)N1C [Example 384, N-[4-fluoro-5-(6-morpholin-4-ylpyridazin-3-yl)-2-[(3R,5S)-3,4,5-trimethylpiperazin-1-yl]phenyl]-6-oxo-4-(trifluoromethyl)-1H-pyridine-3-carboxamide] |
| 0.788 | C[C@@H]1CN(c2ncc(-c3cc(NC(=O)c4c[nH]c(=O)cc4C(F)(F)F)c(N4C[C@@H](C)N(C)[C@@H](C)C4)cc3F)cn2)CCO1 [Example 388, N-[4-fluoro-5-[2-[(2R)-2-methylmorpholin-4-yl]pyrimidin-5-yl]-2-[(3R,5S)-3,4,5-trimethylpiperazin-1-yl]phenyl]-6-oxo-4-(trifluoromethyl)-1H-pyridine-3-carboxamide] |
| 13.3 | C[C@@H]1CN(c2cc(F)c(N3CCN(c4ncccn4)CC3)cc2NC(=O)c2c[nH]c(=O)cc2C(F)(F)F)C[C@H](C)N1C [Example 393, N-[4-fluoro-5-(4-pyrimidin-2-ylpiperazin-1-yl)-2-[(3R,5S)-3,4,5-trimethylpiperazin-1-yl]phenyl]-6-oxo-4-(trifluoromethyl)-1H-pyridine-3-carboxamide] |
| 0.775 | C[C@@H]1CN(c2cc(F)c(C3=CCN(c4ncc(CO)cn4)CC3)cc2NC(=O)c2c[nH]c(=O)cc2C(F)(F)F)C[C@H](C)N1C [Example 394, N-[4-fluoro-5-[1-[5-(hydroxymethyl)pyrimidin-2-yl]-3,6-dihydro-2H-pyridin-4-yl]-2-[(3R,5S)-3,4,5-trimethylpiperazin-1-yl]phenyl]-6-oxo-4-(trifluoromethyl)-1H-pyridine-3-carboxamide] |
